Laboratory results reported in patent US8802864B2, “Triazolones as fatty acid synthase inhibitors” (GlaxoSmithKline LLC, priority 2010, dated 2014).
Where two headings read alike, the source gives them in different places.

Columns and labels:
FAS [1] = molecular target: T1, FAS (Homo sapiens (Human), UniProt P49327); conditions: inhibition of FAS; tested by one of the two FAS assays; value from at least one experiment or the average of multiple experiments
Procedure: (§1) Inhibition of FAS activity can be measured based on the detection of residual NADPH substrate after the FAS assay is quenched. This assay is run as a 10 μL endpoint assay in 384-well format, where the reaction contains 20 μM malonyl-CoA, 2 μM acetyl-CoA, 30 μM NADPH and 40 nM FAS in 50 mM sodium phosphate, pH 7.0. […] The reaction is incubated at ambient temperature for 60 minutes, then quenched with 5 μL of a developing solution composed of 90 μM resazurin, 0.3 IU/ml diaphorase in 50 mM sodium phosphate, pH 7.0. The developed reaction is read on a Molecular Devices Analyst or Acquest (or equivalent) plate reader using a 530 nm excitation wavelength filter, a 580 nm emission filter, and 561 nm dichroic filter. The test compounds are prepared in neat DMSO at a concentration of 10 mM. […] Curves are analysed using ActivityBase and XLfit, and results are expressed as pIC50 values.
(§2) Inhibition of FAS can also be quantified based on the detection of the CoA products with a thio-reactive coumarin dye. This assay is run as a 10 μL endpoint assay in 384-well format, where the reaction contains 20 μM malonyl-CoA, 20 μM acetyl-CoA, 40 μM NADPH and 2 nM FAS in 50 mM sodium phosphate, pH 7.0, and 0.04% Tween-20. […] After 30 minutes, 5 μL substrate is added, and the reaction incubated at ambient temperature for an additional 60 minutes. The reaction is then quenched with 10 μL of 6M guanidine-HCl containing 50 μM CPM (7-diethylamino-3-(4′-maleimidylphenyl)-4-methylcoumarin (CPM; thio-reactive dye), and incubated for 30 minutes. The plate is read on an Envision (PerkinElmer) or equivalent plate reader using a 380 nm excitation wavelength filter, and a 486 nm emission filter. Data fitting and compound preparations are done as described above.

FAS [2] = molecular target: T1, FAS; experiment: biochemical
Procedure: as §1, §2

T1 sequence (P49327 whole entry): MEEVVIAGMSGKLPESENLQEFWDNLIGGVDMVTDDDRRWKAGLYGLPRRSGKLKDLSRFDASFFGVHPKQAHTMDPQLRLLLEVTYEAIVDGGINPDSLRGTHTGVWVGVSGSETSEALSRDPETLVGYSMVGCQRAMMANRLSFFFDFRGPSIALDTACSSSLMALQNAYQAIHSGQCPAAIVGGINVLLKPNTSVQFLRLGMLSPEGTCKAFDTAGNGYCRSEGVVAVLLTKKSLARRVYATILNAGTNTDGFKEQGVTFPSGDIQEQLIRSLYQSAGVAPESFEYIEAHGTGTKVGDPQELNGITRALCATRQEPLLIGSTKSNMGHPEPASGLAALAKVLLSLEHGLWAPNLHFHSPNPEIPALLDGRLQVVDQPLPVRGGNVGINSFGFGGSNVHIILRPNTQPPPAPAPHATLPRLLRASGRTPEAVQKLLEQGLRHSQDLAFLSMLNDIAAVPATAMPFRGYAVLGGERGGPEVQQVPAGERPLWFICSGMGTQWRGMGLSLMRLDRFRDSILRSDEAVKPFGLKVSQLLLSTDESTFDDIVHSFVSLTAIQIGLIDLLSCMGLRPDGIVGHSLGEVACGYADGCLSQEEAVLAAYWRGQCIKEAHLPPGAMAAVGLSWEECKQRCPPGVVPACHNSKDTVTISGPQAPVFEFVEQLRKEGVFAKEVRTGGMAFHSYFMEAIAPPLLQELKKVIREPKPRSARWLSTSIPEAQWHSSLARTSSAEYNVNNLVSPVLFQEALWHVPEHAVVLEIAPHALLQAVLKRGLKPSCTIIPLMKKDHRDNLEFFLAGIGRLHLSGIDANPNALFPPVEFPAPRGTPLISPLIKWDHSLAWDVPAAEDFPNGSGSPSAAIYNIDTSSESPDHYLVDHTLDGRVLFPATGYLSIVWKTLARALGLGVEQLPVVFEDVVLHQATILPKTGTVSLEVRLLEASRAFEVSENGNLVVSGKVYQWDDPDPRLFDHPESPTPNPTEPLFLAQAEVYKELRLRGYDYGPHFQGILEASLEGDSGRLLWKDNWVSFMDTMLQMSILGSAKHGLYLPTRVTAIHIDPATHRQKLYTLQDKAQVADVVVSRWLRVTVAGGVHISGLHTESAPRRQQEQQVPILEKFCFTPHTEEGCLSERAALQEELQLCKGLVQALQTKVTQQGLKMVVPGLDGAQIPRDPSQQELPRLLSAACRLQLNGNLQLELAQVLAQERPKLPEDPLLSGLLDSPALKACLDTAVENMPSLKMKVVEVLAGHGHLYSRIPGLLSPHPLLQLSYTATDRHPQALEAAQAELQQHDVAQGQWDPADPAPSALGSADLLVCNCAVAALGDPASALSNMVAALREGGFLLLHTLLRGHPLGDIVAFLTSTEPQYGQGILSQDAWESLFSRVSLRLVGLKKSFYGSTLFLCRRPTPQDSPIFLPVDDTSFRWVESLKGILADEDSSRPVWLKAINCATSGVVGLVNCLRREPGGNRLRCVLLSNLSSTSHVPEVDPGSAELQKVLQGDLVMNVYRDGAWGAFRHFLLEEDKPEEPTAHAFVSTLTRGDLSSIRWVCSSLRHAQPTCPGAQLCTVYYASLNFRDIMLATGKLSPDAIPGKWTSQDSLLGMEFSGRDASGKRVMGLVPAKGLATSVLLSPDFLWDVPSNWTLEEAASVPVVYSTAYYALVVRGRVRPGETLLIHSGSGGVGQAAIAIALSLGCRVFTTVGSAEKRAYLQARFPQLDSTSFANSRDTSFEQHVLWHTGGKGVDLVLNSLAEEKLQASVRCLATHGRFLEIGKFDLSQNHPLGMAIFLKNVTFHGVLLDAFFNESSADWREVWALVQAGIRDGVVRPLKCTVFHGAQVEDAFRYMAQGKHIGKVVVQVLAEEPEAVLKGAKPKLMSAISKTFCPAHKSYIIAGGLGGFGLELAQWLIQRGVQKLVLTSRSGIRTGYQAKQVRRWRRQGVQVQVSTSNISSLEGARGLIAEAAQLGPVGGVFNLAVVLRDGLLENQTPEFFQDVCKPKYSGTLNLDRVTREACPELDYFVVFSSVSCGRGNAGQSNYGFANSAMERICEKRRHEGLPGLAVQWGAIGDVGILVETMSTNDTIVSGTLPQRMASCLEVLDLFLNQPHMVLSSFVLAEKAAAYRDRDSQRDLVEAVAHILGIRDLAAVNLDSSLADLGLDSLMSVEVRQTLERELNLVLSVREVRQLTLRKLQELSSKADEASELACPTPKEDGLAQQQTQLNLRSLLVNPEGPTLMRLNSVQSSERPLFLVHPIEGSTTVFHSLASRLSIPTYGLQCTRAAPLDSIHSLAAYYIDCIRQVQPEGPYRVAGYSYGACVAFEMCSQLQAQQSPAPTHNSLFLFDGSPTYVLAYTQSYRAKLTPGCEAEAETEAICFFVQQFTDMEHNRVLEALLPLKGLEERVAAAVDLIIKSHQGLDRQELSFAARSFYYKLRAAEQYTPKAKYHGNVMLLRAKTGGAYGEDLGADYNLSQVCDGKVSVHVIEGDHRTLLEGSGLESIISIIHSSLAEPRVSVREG

Row | Compound | IC50 (FAS [1]) [nM] | IC50 (FAS [2]) [nM]
1 | N#Cc1ccc(-c2ccc(-n3c(C[C@@H]4CCN(C(=O)C5CC5)C4)n[nH]c3=O)cc2)cc1 [Example 4, 4′-(3-{[(3S)-1-(cyclopropylcarbonyl)-3-pyrrolidinyl]methyl}-5-oxo-1,5-dihydro-4H-1,2,4-triazol-4-yl)-4-biphenylcarbonitrile] | – | 126
2 | Cc1cc(-c2ccc3cc[nH]c3c2)ccc1-n1c(C[C@@H]2CCN(C(=O)C3CC3)C2)n[nH]c1=O [Example 42, 5-{[(3S)-1-(cyclopropylcarbonyl)-3-pyrrolidinyl]methyl}-4-[4-(1H-indol-6-yl)-2-methylphenyl]-2,4-dihydro-3H-1,2,4-triazol-3-one] | 5 | –
3 | O=C(C1CC1)N1CC[C@@H](Cc2n[nH]c(=O)n2-c2ccc(-c3ccc4ccoc4c3)cc2)C1 [Example 14, 4-[4-(1-benzofuran-6-yl)phenyl]-5-{[(3S)-1-(cyclopropylcarbonyl)-3-pyrrolidinyl]methyl}-2,4-dihydro-3H-1,2,4-triazol-3-one] | 6 | –
4 | Cn1cnc2cc(-c3ccc(-n4c(C[C@@H]5CCN(C(=O)C6CC6)C5)n[nH]c4=O)cc3)ccc21 [Example 23, 5-{[(3S)-1-(cyclopropylcarbonyl)-3-pyrrolidinyl]methyl}-4-[4-(1-methyl-1H-benzimidazol-5-yl)phenyl]-2,4-dihydro-3H-1,2,4-triazol-3-one] | 13 | –
5 | O=C(C1CC1)N1CC[C@@H](Cc2n[nH]c(=O)n2-c2ccc(-c3ccc4c(c3)OCO4)cc2)C1 [Example 38, 4-[4-(1,3-benzodioxol-5-yl)phenyl]-5-{[(3S)-1-(cyclopropylcarbonyl)-3-pyrrolidinyl]methyl}-2,4-dihydro-3H-1,2,4-triazol-3-one] | 158 | –
6 | Cn1nc(C[C@@H]2CCN(C(=O)C3CC3)C2)n(-c2ccc(-c3ccc4occc4c3)cc2)c1=O [Example 7, 4-[4-(1-benzofuran-5-yl)phenyl]-5-{[(3S)-1-(cyclopropylcarbonyl)-3-pyrrolidinyl]methyl}-2-methyl-2,4-dihydro-3H-1,2,4-triazol-3-one] | 20 | –
7 | O=C(C1CC1)N1CC(Cc2n[nH]c(=O)n2-c2ccc(-c3ccc4cc[nH]c4c3)cc2)C1 [Example 67, 5-{[1-(cyclopropylcarbonyl)-3-azetidinyl]methyl}-4-[4-(1H-indol-6-yl)phenyl]-2,4-dihydro-3H-1,2,4-triazol-3-one] | 16 | –
8 | CN(C)Cc1ccc(-c2ccc(-n3c(C[C@@H]4CCN(C(=O)C5CC5)C4)n[nH]c3=O)cc2)cc1 [Example 95, 5-{[(3S)-1-(cyclopropylcarbonyl)-3-pyrrolidinyl]methyl}-4-{4′-[(dimethylamino)methyl]-4-biphenylyl}-2,4-dihydro-3H-1,2,4-triazol-3-one] | 200 | –

More lines, now with the values ahead:

Row | IC50 (FAS [1]) [nM] | IC50 (FAS [2]) [nM] | Compound
9 | 3 | – | O=C(C1CC1)N1CC[C@@H](Cc2n[nH]c(=O)n2-c2ccc(-c3ccc4cnccc4c3)cc2F)C1 [Example 132, 5-{[(3S)-1-(cyclopropylcarbonyl)-3-pyrrolidinyl]methyl}-4-[2-fluoro-4-(6-isoquinolinyl)phenyl]-2,4-dihydro-3H-1,2,4-triazol-3-one]
10 | 40 | – | COc1ccc(-c2ccc(-n3c(C[C@@H]4CCN(C(=O)C5CC5)C4)n[nH]c3=O)c(F)c2)cc1 [Example 116, 5-{[(3S)-1-(cyclopropylcarbonyl)-3-pyrrolidinyl]methyl}-4-[3-fluoro-4′-(methyloxy)-4-biphenylyl]-2,4-dihydro-3H-1,2,4-triazol-3-one]
11 | 398 | – | CC(=O)Nc1ccc(-c2ccc(-n3c(C[C@@H]4CCN(C(=O)C5CC5)C4)n[nH]c3=O)c(F)c2)cc1 [Example 158, N-[4′-(3-{[(3S)-1-(cyclopropylcarbonyl)-3-pyrrolidinyl]methyl}-5-oxo-1,5-dihydro-4H-1,2,4-triazol-4-yl)-3′-fluoro-4-biphenylyl]acetamide]
